The results in this text go back to PubChem BioAssay (NCI).

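Interpolation was linear, between the two tested concentrations surrounding the appropriate level; five concentrations were tested over 48 hours in 96-well plates. GI50 is the concentration that inhibits growth by half. TGI: total growth inhibition.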 Bounds are passed on as bounds.

Common to all, as to assay: inhibition of tumour cell growth, NCI panel, 48 h
Test [1] relates to HOP-62 NSCLC.
Test [2] relates to HT29 colon.
Test [3] concerns MALME-3M melanoma.
For test [4], the system named is NCI-H23 lung.
Test [5] relates to OVCAR-4 ovarian.
Test [6] has as its system SF-539 CNS.
Test [7] deals with SK-MEL-5 melanoma.
In test [8] the test system is SR leukemia.
For test [9], the system named is TK-10 renal.
The subject of test [10] is U251 CNS.

On to `C/C(=N/Nc1nc2ccccc2n1C)c1ccccn1`, for which the GI50 in [1] is 0.185 µM; in test [2], 0.044 µM; in test [3], 0.148 µM; in test [4], 0.0443 µM; in [5], 0.0292 µM; in test [6], 0.225 µM. Besides, the GI50 in test [7] is 0.162 µM; in [8], 0.047 µM; in [9] it was 0.44 µM; in test [10], 0.115 µM. Further, the TGI in test [1] was 4.49 µM; in test [2] it was 24.4 µM; in test [3] it was 16.7 µM; in [4], 19.3 µM; in [5], 11.8 µM; in test [6] it was 1.94 µM. Also, the TGI in [7] was 3.96 µM; in test [8], > 89.7 µM; in test [9], 32.6 µM; in test [10], 19.7 µM.
For the compound `N#CC(C(=O)CCC(=O)C(C#N)c1ccccc1)c1ccccc1` (stereo not drawn), the TGI in test [1], in [2], in test [3], in [4], in [5] and in [6] was > 100 µM in each case. The TGI in test [7], in test [8], in [9] and in [10] was > 100 µM each time.
Regarding `COC(=O)C(=O)OC1(C(C)=O)CC2(c3ccccc3)OC1(c1ccccc1)c1ccccc12` (stereo not drawn), the TGI in test [1] was 32.8 µM; in test [2] it was 30.7 µM; in test [3] it was 35.2 µM; in [4] it was 33.3 µM; in test [5], 51.1 µM; in test [6], 26.7 µM. For the same compound, the TGI is 28.8 µM in [7], > 100 µM in test [8], 70.6 µM in test [9] and 30.5 µM in test [10].
In the case of `COc1ccc(/C=C/C(=O)c2ccc(SC)cc2)cc1OC`, the GI50 in test [1] was 18.8 µM; in test [2], 4.57 µM; in test [4], 2.82 µM; in [5] it was 40.5 µM; in test [6], 12 µM; in test [7], 14.5 µM. Further, the GI50 in test [8] is 3.06 µM; in test [9], 14.7 µM; in test [10], 3.53 µM. The TGI was 42.2 µM in test [1]; 87.5 µM in [2]; 10.4 µM in test [4]; > 100 µM in [5]; 27.3 µM in [6]; 31.7 µM in [7]. In addition, the TGI in test [8] came out at 42.9 µM; in [9], 32.8 µM; in [10], 13.8 µM.
For `C=C1C(=O)O[C@H]2[C@H]1CC/C(Cn1cc(-c3cc(C(F)(F)F)cc(C(F)(F)F)c3)nn1)=C\CC[C@@]1(C)O[C@@H]21`, the GI50 in [1] is 1.56 µM; in test [2], 0.19 µM; in [3], 0.521 µM; in [4], 1.12 µM; in test [5], 0.508 µM; in test [6] it was 0.178 µM. The GI50 in test [7] was 1.47 µM; in [8], 0.103 µM; in test [10] it was 1.44 µM. In addition, the TGI was determined as 3.31 µM in test [1]; 0.486 µM in [2]; 2.16 µM in test [3]; 2.65 µM in test [4]; 1.8 µM in test [5]; 0.422 µM in test [6]. Moreover, the TGI was 2.78 µM in test [7], 0.444 µM in [8] and 2.76 µM in test [10].
As for `COc1cc2c3c(n(CCCN)c(=O)c2cc1OC)-c1cc2c(cc1/C3=C\CCN)OCO2`, the GI50 in test [1] was 5.95 µM; in [2], 0.373 µM; in test [3] it was 1.1 µM; in test [4], 5.35 µM; in [6], 1.62 µM; in [7], 4.55 µM. Also, the GI50 is 0.166 µM in test [8], 4.92 µM in test [9] and 1.33 µM in [10]. The TGI was 36.7 µM in test [1]; 10.6 µM in test [2]; 4.26 µM in test [3]; 24.1 µM in [4]; 4.41 µM in [6]; 11.8 µM in test [7]. In addition, the TGI in test [8] was > 100 µM; in [9] it was > 28 µM; in test [10], 11 µM.
For `O=C1C(Cl)=C(Nc2cccc(Cl)c2)C(=O)N1Cc1ccccc1Cl`, the GI50 in test [1] is 15.8 µM; in [2] it was 5.45 µM; in test [5] it was 12.4 µM; in test [6], 3.8 µM; in test [7] it was 3.37 µM; in test [8], 0.26 µM. Also, the GI50 in test [9] was 12.1 µM; in test [10], 2.95 µM. Further, the TGI is 37.9 µM in test [1]; > 100 µM in [2]; 42.4 µM in test [5]; 15 µM in test [6]; 14.3 µM in test [7]; 0.645 µM in [8]. The TGI in test [9] worked out at 30 µM; in test [10] it was 11.3 µM.
For `O=C1C(=O)c2ccccc2C(O)=C1CC=C(Br)Br`, the GI50 was 9.01 µM in test [1]; 3.25 µM in [2]; 18.2 µM in [3]; 11.7 µM in test [5]; 4.17 µM in test [6]; 1.28 µM in test [7]. Also, the GI50 in test [8] is 2.57 µM; in [10] it was 0.976 µM. In addition, the TGI in test [1] is > 100 µM; in test [2], 53.5 µM; in [3] it was 60.4 µM; in [5] it was 75.9 µM; in test [6] it was 47.3 µM; in [7], 16.6 µM. Also, the TGI was 55.9 µM in test [8] and 52.7 µM in [10].
With `c1ccc2[nH]c(-c3ccc(NN=Nc4ccncc4)cc3)nc2c1`, the GI50 in test [1] is > 100 µM; in test [5] it was 39.5 µM; in [7], 24.1 µM; in test [8], 47.7 µM; in test [9], 52.5 µM; in [10] it was 27.2 µM. Besides, the TGI in test [1], in [5], in test [7], in test [8], in test [9] and in [10] was > 100 µM in each case.
